Assay results reported in ChEMBL document CHEMBL1129118, “New heteroaryl-spaced phosphono -amino acids are competitive NMDA antagonists with analgesic activity” (Bioorg Med Chem Lett, 1996).

These molecules were tested on Mus musculus (assay: Tested for its analgesic activity in the mouse formalin test (20 umol/kg 1 % formaldehyde injected into a hind paw, licking of the paw scored 15-30 min after formalin injection)).
Assay type: functional

Row | SMILES | ED50 [µmol/kg]
1 | CCOc1ccc2cc(CP(=O)(O)O)c(C[C@@H](N)C(=O)O)nc2c1 | 150

These molecules were tested on Mus musculus (assay: Analgesic activity was evaluated in the mouse formalin test (20 uM/Kg 1% formaldehyde injected into a hind paw, licking of the paw scored 15-30 min after formalin injection)).
Assay type: functional

Row | SMILES | ED50 [µmol/kg]
2 | N[C@H](Cc1nc2ccc(Cl)cc2cc1CP(=O)(O)O)C(=O)O | 200

The molecules below were run on Mus musculus (assay: Analgesic activity was evaluated in the mouse formalin test (20 umol/kg 1 % formaldehyde injected into a hind paw, licking of the paw scored 15-30 min after formalin injection)).
Assay type: functional

Row | SMILES | ED50 [µmol/kg]
3 | N[C@H](Cc1nc2cc(Cl)ccc2cc1CP(=O)(O)O)C(=O)O | 60
4 | Cc1cc2cc(CP(=O)(O)O)c(C[C@@H](N)C(=O)O)nc2cc1C | 42

Each molecule was assayed against Glutamate NMDA receptor (assay: Binding affinity to the glutamate site of the NMDA receptor was measured by competitive inhibition of binding of [3H]-CGP- 39653 to rat or porcine cerebral cortex membranes).
Assay type: cell membranes, Membrane

Row | SMILES | Ki [nM]
5 | N[C@H](Cc1nc2cc(Cl)c(Cl)cc2cc1CP(=O)(O)O)C(=O)O | 5
6 | N[C@H](Cc1nc2cc(Cl)ccc2cc1CP(=O)(O)O)C(=O)O | 20
7 | Cc1cc2cc(CP(=O)(O)O)c(C[C@@H](N)C(=O)O)nc2cc1C | 5
8 | Cc1ccc2cc(CP(=O)(O)O)c(C[C@@H](N)C(=O)O)nc2c1 | 54
9 | O=C(O)[C@@H]1C[C@H](CP(=O)(O)O)CCN1 (relative stereo) [SELFOTEL] | 29
10 | N[C@H](Cc1nc2ncccc2cc1CP(=O)(O)O)C(=O)O | 74
11 | N[C@H](Cc1nc2cc(Cl)c(Cl)cc2n1CP(=O)(O)O)C(=O)O | 18.2
12 | N[C@H](Cc1nc2ccncc2cc1CP(=O)(O)O)C(=O)O | 722
13 | CCOc1ccc2cc(CP(=O)(O)O)c(C[C@@H](N)C(=O)O)nc2c1 | 29
14 | N[C@H](Cc1nc2ccc(Cl)cc2cc1CP(=O)(O)O)C(=O)O | 57
15 | NC(Cc1oc2ccccc2c1CP(=O)(O)O)C(=O)O (stereo unspecified) | 2700
16 | CCC/C(=C\C(N)C(=O)O)CP(=O)(O)O (stereo unspecified) | 13
17 | N[C@H](Cc1nc2c(Cl)cc(Cl)cc2cc1CP(=O)(O)O)C(=O)O | 29
18 | Cc1cc2cc(CP(=O)(O)O)c(C[C@@H](N)C(=O)O)nc2cc1Cl | 4
19 | N[C@H](Cc1nc2cccc(Cl)c2cc1CP(=O)(O)O)C(=O)O | 120
20 | N[C@H](Cc1nc2ccccc2cc1CP(=O)(O)O)C(=O)O | 123
21 | NC(Cc1nc2cc(Cl)c(Cl)cc2nc1CP(=O)(O)O)C(=O)O (stereo unspecified) | 3.4
22 | COc1cc2cc(CP(=O)(O)O)c(C[C@@H](N)C(=O)O)nc2cc1OC | 950
23 | NC(Cc1cc2ccccc2cc1CP(=O)(O)O)C(=O)O (stereo unspecified) | 140
24 | CCc1cc2cc(CP(=O)(O)O)c(C[C@@H](N)C(=O)O)nc2cc1CC | 4
25 | N[C@H](Cc1nc2ccc(F)cc2cc1CP(=O)(O)O)C(=O)O | 140
26 | Cc1cc2cc(CP(=O)(O)O)c(C[C@H](N)C(=O)O)nc2cc1C | 430
